Laboratory results published in US20030017565A1, “COMPOSITION AND METHOD FOR TREATING A POROUS ARTICLE AND USE THEREOF” (priority 1996, published 2003).

Assays:
Format in all cases: physicochemical
[1] = leaching of Japan cedar blocks treated with LSA and chemical agents (Example 4); conditions: 5% LSA; for Elution Rate (%) Chemical Agent: species measured as bracketed (Copper, Zinc, Nickel, Boron, H = hinokitiol), else the agent named
Experimental: For chemical agents having low solubilities, they were added to aqueous lignosulfonic acid solution after it was warmed to 60 to 90° C., and it was cooled at 25° C. after the chemical agents were suspended, dispersed, dissolved by Vortex-Mixer, […]
The amount of lignosulfonic acid which leached off was determined by measurement of the absorbance at 280 nm, and the amount of the chemical agent which leached off was determined by complex formation and spectrophotometry using PAN (1-(2-pyridylazo)-2-naphthol, Aldrich Chemical Company) or quinalizarin (Wako Pure Chemicals), separation, identification and determination, using HPLC or gas chromatography, or atomic absorption analysis were performed, followed by calculation of the amount of the chemical agents which was eluted. When the chemical agents had absorption at 280 nm, the concentration of lignosulfonic acid was calculated by measuring the absorbance at 280 nm of the chemical agents of which the concentration was measured by the above-described method and subtracting an influence by the chemical agent from the absorbance at 280 nm of the liquid which was eluted. The amounts of the chemical agents and lignosulfonic acid which were eluted were calculated and compared taking the amounts of them injected upon the impregnation treatment as 100%.

[2] = leaching of cypress blocks, bilirubin oxidase (Example 6); conditions: for Elution Rate (%) LSA: pH 8.1-8.8; for Elution Rate (%) Chemical Agent: pH 8.1-8.8, species as bracketed (Copper, Zinc, Nickel, Boron, H = hinokitiol), else the agent named
Description: Taking the amounts of the lignosulfonic acid (LSA) and chemical agent as injected upon the impregnation treatment as 100%, respectively, the amounts of the substances which were eluted were compared.

[3] = leaching of Japan cedar blocks, treating mixture with tung oil (Example 8); conditions: Example 1 enzyme, 5% LSA, 2,000 ppm tung oil; for Elution Rate (%) LSA: pH 8.1-8.5; for Elution Rate (%) Chemical Agent: pH 8.1-8.5, species as bracketed (Copper, Zinc, Nickel, H = hinokitiol), else the agent named
Experimental: The amounts of the chemical agents and lignosulfonic acid which were eluted were calculated and compared taking the amounts of them injected upon the impregnation treatment as 100%.

[4] = leaching of Japan cedar blocks, powdery treatment agent stored 2 weeks (Example 21); conditions: 5 g in 100 ml; for Elution Rate (%) LSA: powdery agent (10 mg enzyme + 10 g LSA + agent) stored 2 weeks, Japan cedar; for Elution Rate (%) Chemical Agent: powdery agent stored 2 weeks, species as bracketed (Copper, Zinc, Nickel, Boron, H = hinokitiol), else the agent named
Experimental: 10 mg of the freeze-dried product described in Example 1, 10 g of commercially available lignosulfonic acid (LSA) powder, and various chemical agents were mixed well in a mortar to obtain a treatment agent for treating a porous article. If desired, a small amount of sodium carbonate powder was added to the resulting powder and mixed well, so that when a 5% aqueous solution was prepared from the above-described powder the solution could have a pH of 8.0 to 9.0. Then, after the powdery treatment agent was left to stand at room temperature for 2 weeks, 5 g of the powder was dissolved in 100 ml of deionized water to prepare a solution for treating a porous article. Using this solution, Japan cedar wood blocks were subjected to reduced pressure impregnation, drying/macromolecularization reaction, and leaching in the same manner as in Examples 3 and 4. Taking the amounts of lignosulfonic acid and chemical agents injected upon the impregnation treatment as 100%, respectively, the amounts of them which was eluted were compared. The results are shown in Table 12, from which it can be seen that the powdery treatment agent enables effective treatment of porous articles.

[5] = leaching of Japan cedar blocks, liquid treatment agent stored 2 weeks (Example 21); conditions: diluted 10-fold; for Elution Rate (%) LSA: liquid agent (6 g powder in 12 ml) stored airtight 2 weeks, Japan cedar; for Elution Rate (%) Chemical Agent: liquid agent stored airtight 2 weeks, species as bracketed (Copper, Zinc, Nickel, Boron, H = hinokitiol), else the agent named
Experimental: Further, 6 g of the powdery treatment agent obtained in the same manner as described above was dissolved in 12 ml of deionized water to obtain a liquid treatment agent for a porous article. The liquid treatment agent was transferred into a 20 ml screw capped test tube. After the test tube stand airtightly at room temperature for 2 weeks, the liquid treatment agent was diluted 10-fold with deionized water to prepare a solution for treating a porous article. Japan cedar wood blocks were subjected to reduced pressure impregnation treatment with the solution thus obtained, drying/macromolecularization reaction, and elution treatment in the same manner as in Examples 3 and 4. The amounts of the lignosulfonic acid which were eluted were calculated and compared taking the amounts of it injected upon the impregnation treatment as 100%.

[6] = leaching of cypress blocks, peroxidase + alcohol oxidase (Example 7); conditions: 5 U/ml peroxidase + 5 U/ml alcohol oxidase + 1% methanol
Description: The peroxidase used was obtained from horse radish (Type II, Sigma) and the alcohol oxidase used was obtained from Candida boidini (Boehringer Mannheim Biochemica).

[7] = in the absence of enzyme (comparison), pH 8.1-8.8
[8] = in the presence of enzyme, Japan cedar, pH of treating agent 8.1-8.8
[9] = in the presence of enzyme, pH 8.1-8.8

| Compound | Elution Rate (%) LSA [1, 7] [%] | Elution Rate (%) Chemical Agent [1, 7] [%] | Elution Rate (%) LSA [1, 8] [%] | Elution Rate (%) Chemical Agent [1, 9] [%] | Elution Rate (%) LSA [2] [%] | Elution Rate (%) Chemical Agent [2] [%] | Elution Rate (%) LSA [3] [%] | Elution Rate (%) Chemical Agent [3] [%] | Elution Rate (%) LSA [4] [%] | Elution Rate (%) Chemical Agent [4] [%] | Elution Rate (%) LSA [5] [%] | Elution Rate (%) Chemical Agent [5] [%] | Elution Rate (%) LSA ([6]; pH 8.1-8.8) [%] | Elution Rate (%) Chemical Agent ([6]; pH 8.1-8.8, species as bracketed (Copper, Zinc, Boron, H = hinokitiol), else the agent named) [%] |
| --- | --- | --- | --- | --- | --- | --- | --- | --- | --- | --- | --- | --- | --- | --- |
| CC(C)=CCCC(C)=CC=O [100 ppm citral, citral] | 23.4 | 7.1 | 2.5 | 1.8 | 7.9 | 6.0 |  |  |  |  |  |  |  |  |
| Cc1cc2cccc(C)c2cc1C [10 ppm 2,3,5-Trimethylnaphthalene, 2,3,5-Trimethylnaphthalene] | 23.3 | 5.6 | 0.8 | 0.1 | 2.4 | 0.3 |  |  |  |  |  |  |  |  |
| C=CCN=C=S [100 ppm Allyl isothiocyanate, Allyl isothiocyanate] | 26.3 | 7.5 | 3.5 | 2.2 | 8.5 | 7.8 | 2.1 | 1.3 |  |  |  |  |  |  |
| CC(C)c1cccc(=O)c(O)c1 [Hinokitiol (0.2 g), Hinokitiol] |  |  |  |  |  |  |  |  | 0.6 | 3.0 | 0.4 | 2.5 |  |  |
| OB(O)O [1% Boric acid, Boric acid] | 22.1 | 32.3 | 0.7 | 25.1 | 3.7 | 26.2 |  |  |  |  |  |  | 5.6 | 27.5 |
| CC1=CCC(C(C)(C)O)CC1 (stereo not drawn) [500 ppm α-terpineol, α-terpineol] | 24.5 | 9.1 | 0.7 | 0.6 | 1.1 | 1.4 | 0.6 | 0.3 |  |  |  |  |  |  |
| O=C(OC[C@H]1O[C@@H](OC(=O)c2cc(O)c(O)c(OC(=O)c3cc(O)c(O)c(O)c3)c2)[C@H](OC(=O)c2cc(O)c(O)c(OC(=O)c3cc(O)c(O)c(O)c3)c2)[C@@H](OC(=O)c2cc(O)c(O)c(OC(=O)c3cc(O)c(O)c(O)c3)c2)[C@@H]1OC(=O)c1cc(O)c(O)c(OC(=O)c2cc(O)c(O)c(O)c2)c1)c1cc(O)c(O)c(OC(=O)c2cc(O)c(O)c(O)c2)c1 [Tannic acid (0.1 g), Tannic acid] |  |  |  |  |  |  |  |  | 3.6 | 4.2 | 3.7 | 4.6 |  |  |
| CC12CCC(CC1)C(C)(C)O2 [500 ppm cineole, cineole] | 25.7 | 6.2 | 0.5 | 0.2 | 0.8 | 0.6 | 0.5 | 0.2 |  |  |  |  |  |  |
| CC1CCC(C(C)C)C(O)C1 [500 ppm (1R,2S,5R)-(−)-menthol, (1R,2S,5R)-(−)-menthol] | 27.4 | 7.5 | 0.5 | 0.2 | 2.8 | 1.3 | 0.6 | 0.4 |  |  |  |  |  |  |
| OB(O)O [Boric acid (2 g), Boric acid] |  |  |  |  |  |  |  |  | 0.6 | 18.1 | 0.6 |  |  |  |
| CC(C)=CCCC(C)CCO (stereo not drawn) [100 ppm β-citronellol, β-citronellol] | 25.4 | 6.8 | 0.7 | 0.4 | 2.9 | 0.8 | 1.7 | 0.2 |  |  |  |  |  |  |
| CC1=CC[C@@H]2C[C@H]1C2(C)C [500 ppm (1R)-(+)-α-pinene, (1R)-(+)-α-pinene] | 22.8 | 7.3 | 0.6 | 0.3 | 1.0 | 1.2 | 0.7 | 0.2 |  |  |  |  |  |  |
| Nc1ccccc1N [o-Phenylenediamine (0.04 g), o-Phenylenediamine] |  |  |  |  |  |  |  |  | 1.5 | 0.4 | 2.1 | 0.8 |  |  |
| Nc1ccccc1N [200 ppm o-Phenylenediamine, o-Phenylenediamine] | 16.5 | 5.3 | 1.0 | 0.2 | 2.5 | 0.6 |  |  |  |  |  |  |  |  |
| (+)-Catechin.H2O [(+)-Catechin.H2O (0.2 g)] |  |  |  |  |  |  |  |  | 2.9 | 3.2 | 2.0 | 3.4 |  |  |
| O=CC=Cc1ccccc1 [100 ppm Cinnamaldehyde, Cinnamaldehyde] | 22.1 | 8.5 | 1.5 | 0.7 | 5.4 | 2.1 | 1.9 | 0.2 |  |  |  |  |  |  |
